Earlier results in patent US8940724B2, “Quinoline derivitives and their uses” (Amgen Inc., priority 2009, dated 2015).

Columns and labels:
Conditions in all cases: cited from earlier work
[1] = target: T1, p110δ (Homo sapiens, UniProt O00329)
T1 sequence (O00329 1-1044): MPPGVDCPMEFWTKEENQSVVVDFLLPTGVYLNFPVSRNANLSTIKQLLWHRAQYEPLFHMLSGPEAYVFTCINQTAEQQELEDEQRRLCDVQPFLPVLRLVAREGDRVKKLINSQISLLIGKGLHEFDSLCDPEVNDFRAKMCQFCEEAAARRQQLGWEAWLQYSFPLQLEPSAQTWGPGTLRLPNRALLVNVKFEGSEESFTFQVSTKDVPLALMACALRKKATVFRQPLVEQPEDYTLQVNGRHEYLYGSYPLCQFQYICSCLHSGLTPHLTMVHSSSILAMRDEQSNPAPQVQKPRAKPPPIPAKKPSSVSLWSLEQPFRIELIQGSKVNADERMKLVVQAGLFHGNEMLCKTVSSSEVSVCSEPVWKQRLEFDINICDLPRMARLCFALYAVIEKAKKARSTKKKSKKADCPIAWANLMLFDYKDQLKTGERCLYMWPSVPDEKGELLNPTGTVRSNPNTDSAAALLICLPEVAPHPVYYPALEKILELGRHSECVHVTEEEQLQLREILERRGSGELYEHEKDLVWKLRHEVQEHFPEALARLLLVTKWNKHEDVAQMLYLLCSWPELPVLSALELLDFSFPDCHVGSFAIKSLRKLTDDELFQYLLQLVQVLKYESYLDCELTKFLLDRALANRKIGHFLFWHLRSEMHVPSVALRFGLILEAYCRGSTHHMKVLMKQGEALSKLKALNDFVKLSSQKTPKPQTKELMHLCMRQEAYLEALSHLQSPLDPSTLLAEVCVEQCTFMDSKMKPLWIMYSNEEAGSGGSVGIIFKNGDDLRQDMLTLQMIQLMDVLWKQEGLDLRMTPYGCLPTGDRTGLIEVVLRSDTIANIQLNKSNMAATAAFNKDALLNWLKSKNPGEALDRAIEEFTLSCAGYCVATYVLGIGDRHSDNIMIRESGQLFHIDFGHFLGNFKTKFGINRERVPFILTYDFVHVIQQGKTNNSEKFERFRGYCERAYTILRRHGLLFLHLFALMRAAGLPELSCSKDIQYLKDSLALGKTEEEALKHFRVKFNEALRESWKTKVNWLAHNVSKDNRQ

[2] = system: protein kinases
[3] = system: ovalbumin-induced airway inflammation

For `Cc1ccccc1-n1c(Cn2cnc3c(N)ncnc32)nc2cccc(C)c2c1=O` [IC87114], the “inhibits p110δ” value [1] is listed as “high nanomolar range (triple digit)”, the “activity against any protein kinases tested” value [2] is listed as “no activity” and the “inflammation and disease in a murine model of asthma” value [3] is listed as “significantly ameliorate inflammation and disease”.
